Assay results published in US20210261512A1, “NOVEL COMPOUNDS” (INFLAZOME LIMITED, priority 2018, published 2021).

Legend:
[1] = PK, intravenous administration; format: in vivo; conditions: rat, plasma, male Sprague Dawley rats, dose about 1 mg/kg; for Vd: read-out: Vdss
Protocol: Pharmacokinetic parameters were determined in male Sprague Dawley rats (Vital River Laboratory Animal Technology Co Ltd, Beijing, China, 6-9 weeks old). Animals were maintained under a 12 h light/dark cycle. Animals had free access to food and water, except that orally dosed animals were food deprived overnight prior to the study.
For intravenous administration, compounds were formulated as a solution (in DMSO:water [10:90] or in DMSO:PBS [10:90]) in 2 mL/kg dosing volume and administered via tail vein. For oral administration, compounds were formulated as a solution (in 0.5% methylcellulose in water) in […] dosing volume and administered orally.
Serial blood samples (about 200 μL) were taken from each animal at each of 8 time-points post dose ([…], 0.25, 0.5, 1, 2, 4, 8 and 24 h). Samples were held on ice for no longer than 30 minutes before centrifugation (5,696 rpm (3,000 g) for 15 minutes) for plasma generation. Plasma was frozen on dry ice prior to bioanalysis. PK parameters were generated from LC-MS/MS data using Phoenix WinNonlin 6.3 software.

NLRP3 [2] = molecular target: T1, NLRP3 (Homo sapiens, UniProt Q96P20); assay: THP-1 cells pyroptosis assay; format: cell-based; set-up: Seed THP-1 cells (25,000 cells/well) containing 1.0 μg/ml LPS; host or cells: THP-1; conditions: LPS 1.0 μg/ml, nigericin 5 μM, resazurin readout, 10 μM top dose (Example 2: top dose of 30 μM)
T1 sequence (Q96P20 whole entry): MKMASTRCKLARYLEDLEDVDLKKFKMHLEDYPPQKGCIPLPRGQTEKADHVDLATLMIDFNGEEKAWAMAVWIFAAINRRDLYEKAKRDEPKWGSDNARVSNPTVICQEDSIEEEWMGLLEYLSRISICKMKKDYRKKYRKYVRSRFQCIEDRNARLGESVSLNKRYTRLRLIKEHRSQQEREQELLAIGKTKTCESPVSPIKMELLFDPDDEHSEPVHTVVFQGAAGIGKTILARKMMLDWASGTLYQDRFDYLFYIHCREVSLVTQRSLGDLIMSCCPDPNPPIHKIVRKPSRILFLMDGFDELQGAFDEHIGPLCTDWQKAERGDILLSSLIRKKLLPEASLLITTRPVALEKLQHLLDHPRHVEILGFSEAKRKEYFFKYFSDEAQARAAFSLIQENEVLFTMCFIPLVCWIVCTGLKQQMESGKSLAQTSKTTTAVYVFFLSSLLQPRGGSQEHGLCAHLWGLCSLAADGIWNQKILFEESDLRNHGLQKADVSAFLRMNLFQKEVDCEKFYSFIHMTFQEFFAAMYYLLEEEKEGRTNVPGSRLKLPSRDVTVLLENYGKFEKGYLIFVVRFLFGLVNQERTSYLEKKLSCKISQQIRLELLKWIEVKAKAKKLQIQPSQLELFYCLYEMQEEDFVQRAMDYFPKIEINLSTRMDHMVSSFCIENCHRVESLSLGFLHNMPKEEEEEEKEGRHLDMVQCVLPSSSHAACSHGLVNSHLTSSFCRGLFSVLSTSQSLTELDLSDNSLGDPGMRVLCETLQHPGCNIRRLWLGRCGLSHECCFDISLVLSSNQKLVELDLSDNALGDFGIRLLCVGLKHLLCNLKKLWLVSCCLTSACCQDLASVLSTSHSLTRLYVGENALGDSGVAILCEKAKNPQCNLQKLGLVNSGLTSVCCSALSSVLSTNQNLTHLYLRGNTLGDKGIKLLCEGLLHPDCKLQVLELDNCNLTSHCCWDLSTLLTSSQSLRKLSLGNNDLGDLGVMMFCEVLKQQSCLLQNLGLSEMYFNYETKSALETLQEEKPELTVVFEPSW
Summary of the method: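 Pyroptosis induced by 5 μM nigericin (1 h) in LPS-primed (1 μg/ml) THP-1 cells, 25,000/well in serum-free RPMI, after 3 h compound pre-treatment (8 points, 10 μM top unless stated). Surviving cells measured with 100 μM resazurin, Ex 560/Em 590; IC50 via variable-slope 4-parameter regression.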

NLRP3 [3] = molecular target: T1, NLRP3; assay: Human whole blood IL1β release assay; format: cell-based; conditions: LPS 1 μg/ml, nigericin 10 μM, IL-1β AlphaLisa, 10 μM top dose (Example 2: top dose of 30 μM), read-out: HWB IC50
Summary of the method: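 Healthy-donor heparinised human whole blood with 1 μg/ml LPS, compound (8-point half-log dilution, 10 μM top dose unless stated; 0.1% DMSO vehicle) for 3 h at 37 °C, then nigericin 10 μM final for 1 h. Supernatant IL-1β by AlphaLISA; IC50 from 4-parameter variable-slope fit.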

| AUC [1] | clearance [1] | half-life [1] | Vd [1] | IC50 (NLRP3 [2]) | IC50 (NLRP3 [3]) | SMILES |
| --- | --- | --- | --- | --- | --- | --- |
| 354 ng·h/mL | 47.1 mL/min/kg | 78 min | 3.21 L/kg | ≤ 1000 nM | ≤ 1000 nM | CN(C)CCNS(=O)(=O)c1nnc(Nc2c3c(cc4c2CCC4)CCC3)[nH]1 [Example 94, N-(2-(dimethylamino)ethyl)-5-((1,2,3,5,6,7-hexahydro-s-indacen-4-yl)amino)-4H-1,2,4-triazole-3-sulfonamide] |
| 307 ng·h/mL | 54.2 mL/min/kg | 84 min | 4.01 L/kg | ≤ 500 nM | ≤ 500 nM | CN(C)C1CCN(S(=O)(=O)c2nnc(Nc3c4c(cc5c3CCC5)CCC4)[nH]2)CC1 [Example 118, 1-((5-((1,2,3,5,6,7-hexahydro-s-indacen-4-yl)amino)-4H-1,2,4-triazol-3-yl)sulfonyl)-N,N-dimethylpiperidin-4-amine] |
| 162 ng·h/mL | 106 mL/min/kg | 156 min | 10.1 L/kg | ≤ 500 nM | ≤ 500 nM | CN(C)CC1CCN(S(=O)(=O)c2nnc(Nc3c4c(cc5c3CCC5)CCC4)[nH]2)C1 (stereo not drawn) [Example 119, 5-((3-((dimethylamino)methyl)pyrrolidin-1-yl)sulfonyl)-N-(1,2,3,5,6,7-hexahydro-s-indacen-4-yl)-4H-1,2,4-triazol-3-amine] |
| 509 ng·h/mL | 32.8 mL/min/kg | 468 min | 10.6 L/kg | ≤ 1000 nM | ≤ 5000 nM | CNC1CCN(S(=O)(=O)c2nnc(Nc3c4c(cc5c3CCC5)CCC4)[nH]2)CC1 [Example 130, 1-((5-((1,2,3,5,6,7-hexahydro-s-indacen-4-yl)amino)-4H-1,2,4-triazol-3-yl)sulfonyl)-N-methylpiperidin-4-amine] |
| 198 ng·h/mL | 84.1 mL/min/kg | 21.6 min | 2.66 L/kg | ≤ 500 nM | ≤ 5000 nM | CC(C)c1cc(F)cc(-c2ccncc2)c1Cc1nnc(S(=O)(=O)N2CCC(CN(C)C)C2)[nH]1 (stereo not drawn) [Example 153, 1-(1-((5-(4-fluoro-2-isopropyl-6-(pyridin-4-yl)benzyl)-4H-1,2,4-triazol-3-yl)sulfonyl)pyrrolidin-3-yl)-N,N-dimethylmethanamine] |
| 193 ng·h/mL | 103 mL/min/kg | 24 min | 2.95 L/kg | ≤ 1000 nM | ≤ 5000 nM | COc1cc(-c2cc(F)cc(C(C)C)c2Cc2nnc(S(=O)(=O)N3CCC(CN(C)C)C3)[nH]2)ccn1 (stereo not drawn) [Example 156, 1-(1-((5-(4-fluoro-2-isopropyl-6-(2-methoxypyridin-4-yl)benzyl)-4H-1,2,4-triazol-3-yl)sulfonyl)pyrrolidin-3-yl)-N,N-dimethylmethanamine] |
| 814 ng·h/mL | 19.1 mL/min/kg | 28.4 min | 0.41 L/kg | ≤ 1000 nM | ≤ 10000 nM | Cn1ccc(S(=O)(=O)c2nnc(Nc3c4c(cc5c3CCC5)CCC4)[nH]2)n1 [Example 176, N-(1,2,3,5,6,7-hexahydro-s-indacen-4-yl)-5-((1-methyl-1H-pyrazol-3-yl)sulfonyl)-4H-1,2,4-triazol-3-amine] |
| 216 ng·h/mL | 76.1 mL/min/kg | 11.4 min | 0.88 L/kg | ≤ 500 nM | ≤ 500 nM | CN1CCC2(C1)CN(S(=O)(=O)c1nnc(Nc3c(-c4ccnc(OC(F)F)c4)ccc4c3CCO4)[nH]1)C2 [Example 212, N-(5-(2-(difluoromethoxy)pyridin-4-yl)-2,3-dihydrobenzofuran-4-yl)-5-((6-methyl-2,6-diazaspiro[3.4]octan-2-yl)sulfonyl)-4H-1,2,4-triazol-3-amine] |
| 182 ng·h/mL | 78.1 mL/min/kg | 15 min | 1.02 L/kg | ≤ 500 nM | ≤ 500 nM | COc1cc(-c2ccc3c(c2Nc2nnc(S(=O)(=O)N4CC5(CCN(C)C5)C4)[nH]2)CCO3)ccn1 [Example 214, N-(5-(2-methoxypyridin-4-yl)-2,3-dihydrobenzofuran-4-yl)-5-((6-methyl-2,6-diazaspiro[3.4]octan-2-yl)sulfonyl)-4H-1,2,4-triazol-3-amine] |
| 58 ng·h/mL | 121 mL/min/kg | 31.2 min | 2.86 L/kg | ≤ 500 nM | ≤ 500 nM | COc1cc(-c2ccc3c(c2Nc2nnc(S(=O)(=O)N4CC5(CCN(C)C5)C4)[nH]2)CCC3)ccn1 [Example 215, N-(5-(2-methoxypyridin-4-yl)-2,3-dihydro-1H-inden-4-yl)-5-((6-methyl-2,6-diazaspiro[3.4]octan-2-yl)sulfonyl)-4H-1,2,4-triazol-3-amine] |
| 224 ng·h/mL | 72.3 mL/min/kg | 131 min | 6.41 L/kg | ≤ 500 nM | ≤ 1000 nM | COc1cc(-c2c(C)cc3c(c2Nc2nnc(S(=O)(=O)N4CCC(N(C)C)CC4)[nH]2)CCC3)ccn1 [Example 216, 1-((5-((5-(2-methoxypyridin-4-yl)-6-methyl-2,3-dihydro-1H-inden-4-yl)amino)-4H-1,2,4-triazol-3-yl)sulfonyl)-N,N-dimethylpiperidin-4-amine] |
| 216 ng·h/mL | 77.2 mL/min/kg | 46.8 min | 1.48 L/kg | ≤ 500 nM | ≤ 1000 nM | COc1cc(-c2ccc3c(c2Nc2nnc(S(=O)(=O)N4CCC(N(C)C)CC4)[nH]2)CCO3)ccn1 [Example 226, 1-((5-((5-(2-methoxypyridin-4-yl)-2,3-dihydrobenzofuran-4-yl)amino)-4H-1,2,4-triazol-3-yl)sulfonyl)-N,N-dimethylpiperidin-4-amine] |
| 459 ng·h/mL | 36.3 mL/min/kg | 19.6 min | 0.494 L/kg | ≤ 500 nM | ≤ 1000 nM | COc1cc(-c2ccc3c(c2Nc2nnc(S(=O)(=O)N4CC[C@H](C(C)(C)O)C4)[nH]2)CCC3)ccn1 [Example 231, (S)-2-(1-((5-((5-(2-methoxypyridin-4-yl)-2,3-dihydro-1H-inden-4-yl)amino)-4H-1,2,4-triazol-3-yl)sulfonyl)pyrrolidin-3-yl)propan-2-ol] |
| 393 ng·h/mL | 49.6 mL/min/kg | 44.4 min | 1.63 L/kg | ≤ 500 nM | ≤ 5000 nM | O=S(=O)(c1nnc(Nc2c3c(cc4c2CCC4)CCC3)[nH]1)N1CC2(CCN(C3CC3)C2)C1 [Example 245, 5-((6-cyclopropyl-2,6-diazaspiro[3.4]octan-2-yl)sulfonyl)-N-(1,2,3,5,6,7-hexahydro-s-indacen-4-yl)-4H-1,2,4-triazol-3-amine] |
| 253 ng·h/mL | 72.5 mL/min/kg | 163 min | 12.7 L/kg | ≤ 500 nM | ≤ 500 nM | CC(C)c1cc(F)cc(C(C)C)c1Nc1nnc(S(=O)(=O)N2CCC3(CCCN3C)CC2)[nH]1 [Example 247, N-(4-fluoro-2,6-diisopropylphenyl)-5-((i-methyl-1,8-diazaspiro[4.5]decan-8-yl)sulfonyl)-4H-1,2,4-triazol-3-amine] |
| 392 ng·h/mL | 55.2 mL/min/kg | 15.6 min | 0.6 L/kg | ≤ 500 nM | ≤ 5000 nM | COc1cc(-c2cc(F)cc(C(C)C)c2Oc2nnc(S(=O)(=O)N3CC4(CCN(C)C4)C3)[nH]2)ccn1 [Example 250, 2-((5-(4-fluoro-2-isopropyl-6-(2-methoxypyridin-4-yl)phenoxy)-4H-1,2,4-triazol-3-yl)sulfonyl)-6-methyl-2,6-diazaspiro[3.4]octane] |
| 362 ng·h/mL | 51.1 mL/min/kg | 25.6 min | 0.82 L/kg | ≤ 1000 nM | ≤ 5000 nM | COc1cc(-c2cc(F)cc(C(C)C)c2Oc2nnc(S(=O)(=O)N3CCC4(CCN4C)CC3)[nH]2)ccn1 [Example 252, 7-((5-(4-fluoro-2-isopropyl-6-(2-methoxypyridin-4-yl)phenoxy)-4H-1,2,4-triazol-3-yl)sulfonyl)-1-methyl-1,7-diazaspiro[3.5]nonane] |
| 169 ng·h/mL | 90.1 mL/min/kg | 134 min | 9.57 L/kg | ≤ 500 nM | ≤ 1000 nM | COc1cc(-c2cc(F)cc(C(C)C)c2Nc2nnc(S(=O)(=O)N3CCC(CN(C)C)C3)[nH]2)ccn1 (stereo not drawn) [Example 259, 5-((3-((dimethylamino)methyl)pyrrolidin-1-yl)sulfonyl)-N-(4-fluoro-2-isopropyl-6-(2-methoxypyridin-4-yl)phenyl)-4H-1,2,4-triazol-3-amine] |
